Reference: patent US20100247659A1, “PHENYLPHTHALIMIDE ANALOGS FOR TREATING DIABETIC MACULAR EDEMA” (Charlesson, LLC, priority 2007, published 2010)

Assay: Drying at elevated temperature
Assay type: physicochemical
Details: 70° C., 89 h
Description: Synthesis of Compound 4 was successfully carried out via catalytic hydrogenation and via transfer hydrogenation. Catalytic hydrogenation required a longer reaction time (24 h) under 45-50 psi. This method requires specialized equipment. […] Scale-up of this reaction gave 99.2% pure material in 91% yield.
A 12 L, 3-neck round bottom flask, equipped appropriately and under nitrogen, was charged with a slurry of 10% palladium on carbon (24.5 g, 10% (w/w)) in ethanol (200 proof, 1 L). To this slurry was charged (2,6-diisopropylphenyl)-5-nitro-1H-isoindole-1,3-dione (245.0 g, 0.70 mol) followed by ethanol (200 proof, 2.92 L, 3.92 L total, 16 mL/g) and triethylamine (311.7 g, 3.08 mol, 4.40 eq). Formic acid (135.8 g, 2.95 mol, 4.22 eq) was added slowly over 25 min. The slurry was heated to reflux and the reaction progress was monitored by HPLC. At 3.5 h, the mixture was filtered through a Celite bed to remove the catalyst. The filter bed was rinsed with ethanol (200 proof, 4×175 mL). The filtrate was then clarified through Whatman filter paper to remove any particulates. Ethanol (200 proof, 2×150 mL) was used as a rinse. To the solution was added water (deionized, 3.92 L), over 45 min. The resulting slurry was stirred at ambient temperature overnight. The following day, the slurry was cooled to 0-10° C. for 2 h. […]

For CC(C)c1cccc(C(C)C)c1N1C(=O)c2ccc(N)cc2C1=O [Compound 4], which stability on drying is on record?
Its stability on drying is “does not cause decomposition”.
